Our source for the inhibition and Ki values is ChEMBL document CHEMBL3608296, “Synthesis of sulfonamides incorporating piperazinyl-ureido moieties and their carbonic anhydrase I, II, IX and XII inhibitory activity” (Bioorg Med Chem Lett, 2015).

Assay [1] addresses Carbonic anhydrase 12 (Homo sapiens) (UniProt O43570). To be noted: at 0.001 µM.
Description: Inhibition of human carbonic anhydrase 12 at 10^-9 M preincubated for 15 mins by stopped flow CO2 hydration method relative to control
The target is the same in assay [2]. To be noted: at 1 µM.
Description: Inhibition of human carbonic anhydrase 12 at 10^-6 M preincubated for 15 mins by stopped flow CO2 hydration method relative to control
Assay [3] addresses T1, Carbonic anhydrase 9 (Homo sapiens, UniProt Q16790). To be noted: at 1 µM.
Description: Inhibition of human carbonic anhydrase 9 at 10^-6 M preincubated for 15 mins by stopped flow CO2 hydration method relative to control
Assay [4] deals with Carbonic anhydrase 12 (Homo sapiens) (UniProt O43570). To be noted: at 0.01 µM.
Chain of Carbonic anhydrase 12 (Homo sapiens) (O43570 whole entry): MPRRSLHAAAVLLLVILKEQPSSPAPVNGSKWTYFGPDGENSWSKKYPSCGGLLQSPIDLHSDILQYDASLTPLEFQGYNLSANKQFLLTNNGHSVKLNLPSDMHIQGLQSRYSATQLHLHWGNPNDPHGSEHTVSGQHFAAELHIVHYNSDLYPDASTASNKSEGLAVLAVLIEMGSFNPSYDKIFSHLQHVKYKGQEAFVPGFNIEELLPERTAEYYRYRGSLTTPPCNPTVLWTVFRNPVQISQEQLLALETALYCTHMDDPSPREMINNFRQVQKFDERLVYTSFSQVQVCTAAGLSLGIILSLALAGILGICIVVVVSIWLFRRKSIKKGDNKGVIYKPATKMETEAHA
Description: Inhibition of human carbonic anhydrase 12 at 10^-8 M preincubated for 15 mins by stopped flow CO2 hydration method relative to control
Assay [5] addresses T1, Carbonic anhydrase 9. To be noted: at 0.1 µM.
Description: Inhibition of human carbonic anhydrase 9 at 10^-7 M preincubated for 15 mins by stopped flow CO2 hydration method relative to control
The target in assay [6] is T1, Carbonic anhydrase 9. To be noted: at 0.01 µM.
Description: Inhibition of human carbonic anhydrase 9 at 10^-8 M preincubated for 15 mins by stopped flow CO2 hydration method relative to control
The target in assay [7] is T1, Carbonic anhydrase 9. To be noted: at 0.001 µM.
Description: Inhibition of human carbonic anhydrase 9 at 10^-9 M preincubated for 15 mins by stopped flow CO2 hydration method relative to control
The target of assay [8] is Carbonic anhydrase 12 (Homo sapiens) (UniProt O43570). To be noted: at 0.1 µM.
Description: Inhibition of human carbonic anhydrase 12 at 10^-7 M preincubated for 15 mins by stopped flow CO2 hydration method relative to control
Assay [9] has as its target T1, Carbonic anhydrase 9.
Description: Inhibition of human carbonic anhydrase 9 preincubated for 15 mins by stopped flow CO2 hydration method
In the next assay the target is Carbonic anhydrase 1 (Homo sapiens, UniProt P00915). Nature of the assay: Inhibition of human carbonic anhydrase 1 preincubated for 15 mins by stopped flow CO2 hydration method.
Chain of Carbonic anhydrase 1 (P00915 whole entry): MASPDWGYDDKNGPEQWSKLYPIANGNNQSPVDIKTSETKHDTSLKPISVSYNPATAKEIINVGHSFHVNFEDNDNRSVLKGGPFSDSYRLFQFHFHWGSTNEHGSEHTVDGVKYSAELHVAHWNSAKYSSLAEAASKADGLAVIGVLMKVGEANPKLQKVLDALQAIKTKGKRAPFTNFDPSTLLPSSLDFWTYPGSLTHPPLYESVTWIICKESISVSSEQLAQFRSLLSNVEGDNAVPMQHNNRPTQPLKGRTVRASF

A word on the inhibition: it is the drop in the measured response relative to a control, in per cent. For the compound `NS(=O)(=O)c1ccc(NC(=O)N2CCN(C(=O)Cc3ccc(Cl)cc3Cl)CC2)cc1`, the inhibition amounted to 34% in assay [1]; 51% in [2]; 54% on Carbonic anhydrase 9 [3]; 42% in [4]; 49% against Carbonic anhydrase 9 [5]; 48% against Carbonic anhydrase 9 [6]. For the same compound, the inhibition at Carbonic anhydrase 9 [7] amounted to 38%; in assay [8], 48%.

In general, Ki refers to a dissociation constant, usually derived from enzyme kinetics or from competition with a known ligand. On Carbonic anhydrase 9 [9], `COc1ccccc1N1CCN(C(=O)Nc2ccc(S(N)(=O)=O)cc2)CC1` displayed an inhibitory constant (Ki) of 237 nM.

The compound `COc1cccc(N2CCN(C(=O)Nc3ccc(S(N)(=O)=O)cc3)CC2)c1` yielded an inhibition constant Ki at Carbonic anhydrase 9 [9] of 39.6 nM.

Compound `NS(=O)(=O)c1ccc(NC(=O)N2CCN(c3ccc(F)cc3)CC2)cc1` returned an inhibition constant (Ki) on Carbonic anhydrase 9 [9] of 9.9 nM.

`NS(=O)(=O)c1ccc(NC(=O)N2CCN(Cc3ccccc3)CC2)cc1` displayed a Ki on Carbonic anhydrase 9 [9] of 462 nM.

The compound `NS(=O)(=O)c1ccc(NC(=O)N2CCN(c3nccc(C(F)(F)F)n3)CC2)cc1` gave an inhibitory constant (Ki) on Carbonic anhydrase 9 [9] of 134 nM.

With `NS(=O)(=O)c1ccc(NC(=O)N2CCN(C(=O)COc3ccc(Cl)cc3Cl)CC2)cc1`, the inhibition in assay [1] came out at 29%; in assay [2], 51%; against Carbonic anhydrase 9 [3], 56%; in assay [4], 43%; at Carbonic anhydrase 9 [5], 51%; on Carbonic anhydrase 9 [6], 49%. In addition, the inhibition on Carbonic anhydrase 9 [7] is 33%; in assay [8] it was 48%.

On to `NS(=O)(=O)c1ccc(NC(=O)N2CCN(c3ccccc3)CC2)cc1`, for which, at Carbonic anhydrase 9 [9], the affinity, expressed as Ki, was 8.7 nM. This lies in the single-digit nanomolar range.

Turning to `NS(=O)(=O)c1ccc(NC(=O)N2CCN(c3cccc(Cl)c3)CC2)cc1`, at Carbonic anhydrase 9 [9], the Ki amounted to 233 nM.

On to `NS(=O)(=O)c1ccc(NC(=O)N2CCN(C(=O)COc3ccc(Cl)cc3)CC2)cc1`, for which the inhibition in [1] came to 30%; in [2] it was 52%; at Carbonic anhydrase 9 [3] it was 52%; in assay [4], 47%; on Carbonic anhydrase 9 [5] it was 48%; on Carbonic anhydrase 9 [6] it was 47%. Besides, the inhibition worked out at 36% at Carbonic anhydrase 9 [7] and 49% in [8].

Turning to `COc1ccc(CC(=O)N2CCN(C(=O)Nc3ccc(S(N)(=O)=O)cc3)CC2)cc1`, the inhibition in [1] amounted to 34%; in [2], 51%; on Carbonic anhydrase 9 [3], 55%; in assay [4], 46%; against Carbonic anhydrase 9 [5], 49%; against Carbonic anhydrase 9 [6], 47%. Also, the inhibition is 36% against Carbonic anhydrase 9 [7] and 49% in assay [8].

Turning to `NS(=O)(=O)c1ccc(NC(=O)N2CCN(c3ccc(Cl)c(Cl)c3)CC2)cc1`, the Ki on Carbonic anhydrase 9 [9] came out at 268 nM.

At Carbonic anhydrase 9 [9], `NS(=O)(=O)c1ccc(NC(=O)N2CCN(Cc3ccc(Cl)cc3)CC2)cc1` returned a Ki of 39.6 nM.

`NS(=O)(=O)c1ccc(NC(=O)N2CCN(c3ccc(Cl)cc3)CC2)cc1`: the inhibitory constant (Ki) on Carbonic anhydrase 1 is above 10000 nM; at Carbonic anhydrase 9 [9], 320 nM.

Turning to `NS(=O)(=O)c1ccc(NC(=O)N2CCN(C(=O)Cc3ccc(Cl)cc3)CC2)cc1`, the inhibition in [1] amounted to 34%; in assay [2], 51%; against Carbonic anhydrase 9 [3] it was 51%; in [4], 40%; against Carbonic anhydrase 9 [5], 47%; against Carbonic anhydrase 9 [6], 45%. Moreover, the inhibition came out at 37% on Carbonic anhydrase 9 [7] and 47% in assay [8].

For the compound `COc1ccc(N2CCN(C(=O)Nc3ccc(S(N)(=O)=O)cc3)CC2)cc1`, the Ki at Carbonic anhydrase 9 [9] worked out at 409 nM.

Take `NS(=O)(=O)c1ccc(NC(=O)N2CCN(C(=O)Cc3ccccc3)CC2)cc1`: the inhibition in [1] amounted to 26%; in assay [2], 51%; against Carbonic anhydrase 9 [3] it was 54%; in assay [4], 44%; against Carbonic anhydrase 9 [5], 49%; on Carbonic anhydrase 9 [6], 44%. The values for the inhibition (against Carbonic anhydrase 9 [7]; in assay [8]) were 38% and 47%, respectively.

The compound `N#Cc1cccnc1N1CCN(C(=O)Nc2ccc(S(N)(=O)=O)cc2)CC1` returned a Ki at Carbonic anhydrase 9 [9] of 202 nM.

In the case of `CC(C)(C)c1ccc(N2CCN(C(=O)Nc3ccc(S(N)(=O)=O)cc3)CC2)cc1`, at Carbonic anhydrase 9 [9], the inhibition constant (Ki) came out at 129 nM.

`NS(=O)(=O)c1ccc(NC(=O)N2CCN(C(=O)Cc3ccc(O)cc3)CC2)cc1`: the inhibition is 33% in [1]; 58% in [2]; 52% against Carbonic anhydrase 9 [3]; 46% in [4]; 48% against Carbonic anhydrase 9 [5]; 45% at Carbonic anhydrase 9 [6]. Moreover, the inhibition at Carbonic anhydrase 9 [7] worked out at 34%; in assay [8], 49%.

The compound `NS(=O)(=O)c1ccc(NC(=O)N2CCN(c3ccccn3)CC2)cc1` returned an inhibitory constant (Ki) at Carbonic anhydrase 9 [9] of 487 nM. In other words, the sub-micromolar range.

Take `NS(=O)(=O)c1ccc(NC(=O)N2CCN(C(=O)COc3ccccc3)CC2)cc1`: the inhibition in assay [1] is 36%; in assay [2] it was 51%; against Carbonic anhydrase 9 [3], 55%; in [4], 46%; against Carbonic anhydrase 9 [5] it was 53%; against Carbonic anhydrase 9 [6], 35%. In addition, the inhibition against Carbonic anhydrase 9 [7] was 22%; in assay [8], 49%.

The compound `NS(=O)(=O)c1ccc(NC(=O)N2CCN(c3ccc(C(F)(F)F)cn3)CC2)cc1` came in with an inhibitory constant (Ki) on Carbonic anhydrase 9 [9] of 514 nM.

On to `COc1cc(CC(=O)N2CCN(C(=O)Nc3ccc(S(N)(=O)=O)cc3)CC2)cc(OC)c1O`, for which the inhibition was found to be 34% in assay [1]; 51% in [2]; 55% on Carbonic anhydrase 9 [3]; 45% in assay [4]; 52% at Carbonic anhydrase 9 [5]; 41% against Carbonic anhydrase 9 [6]. Further, the inhibition on Carbonic anhydrase 9 [7] came to 37%; in assay [8] it was 49%.

`NS(=O)(=O)c1ccc(NC(=O)N2CCN(c3ncccc3C(F)(F)F)CC2)cc1`: the Ki on Carbonic anhydrase 9 [9] amounted to 280 nM. This lies in the sub-micromolar range.
